From PubChem BioAssay AID328 (DTP/NCI, 2004) come the findings set out here.

This test deals with BDF1 mice, P388 leukemia ip, median survival T/C. Put plainly: NCI In Vivo Anticancer Drug Screen. Data for tumor model P388 Leukemia (intraperitoneal) in B6D2F1 (BDF1) mice. Particulars: endpoint: median survival time, higher = longer survival. The procedure, abridged: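 Reported as T/C, where T is the survival measurement in dosed animals and C the same measurement in vehicle controls.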

Where [1] appears, read: dose: 100.0 mg/kg/injection, schedule: Q01DX009 (ip), vehicle: saline.
Setting [2] is: dose: 200.0 mg/kg/injection, schedule: Q01DX009 (ip), vehicle: saline.
Where [3] appears, read: dose: 400.0 mg/kg/injection, schedule: Q01DX009 (ip), vehicle: saline.
Setting [4] is: dose: 50.0 mg/kg/injection, schedule: Q01DX009 (ip), vehicle: saline with Tween-80.
Where [5] appears, read: dose: 100.0 mg/kg/injection, schedule: Q04DX003 (ip), vehicle: saline with Tween-80.
Where [6] appears, read: dose: 200.0 mg/kg/injection, schedule: Q04DX003 (ip), vehicle: saline with Tween-80.
Where [7] appears, read: dose: 400.0 mg/kg/injection, schedule: Q04DX003 (ip), vehicle: saline with Tween-80.
The mark [8] stands for this setting: dose: 25.0 mg/kg/injection, schedule: Q01DX009 (ip), vehicle: Klucel (hydroxypropylcellulose) (HPC).
Where [9] appears, read: dose: 50.0 mg/kg/injection, schedule: Q01DX009 (ip), vehicle: Klucel (hydroxypropylcellulose) (HPC).
The mark [10] stands for this setting: dose: 100.0 mg/kg/injection, schedule: Q01DX009 (ip), vehicle: Klucel (hydroxypropylcellulose) (HPC).

Toxic doses and inconclusive results are not listed.

`CC(C)N1c2c(nc(N)[nH]c2=O)NCC1CNc1ccc(C(=O)NC(CCC(=O)O)C(=O)O)cc1` (centres undefined): the T/C reads like this: under setting [1], 105 % of control; (dose: 150.0 mg/kg/injection, schedule: Q01DX009 (ip), vehicle: saline) 90 % of control; under setting [2], 97 % of control; (dose: 300.0 mg/kg/injection, schedule: Q01DX009 (ip), vehicle: saline) 93 % of control; under setting [3], 110 % of control.

As for `N#C/C(=C\c1cc(Cl)cc(Cl)c1O)c1nc2ccccc2[nH]1`, the T/C by setting is: under setting [4], 93 % of control; (dose: 100.0 mg/kg/injection, schedule: Q01DX009 (ip), vehicle: saline with Tween-80) 93 % of control.

In the case of `O=C1CCCC1C(=O)Nc1cccc2cccnc12` (centres undefined), the T/C runs as follows: under setting [5], 117 % of control; under setting [6], 95 % of control; under setting [7], 100 % of control.

Take `CCCn1cnc2c(=S)nc(N)[nH]c21`: the T/C was 100 % of control (dose: 6.25 mg/kg/injection, schedule: Q01DX009 (ip), vehicle: Klucel (hydroxypropylcellulose) (HPC)); 86 % of control (dose: 12.5 mg/kg/injection, schedule: Q01DX009 (ip), vehicle: Klucel (hydroxypropylcellulose) (HPC)); 86 % of control under setting [8]; 110 % of control (dose: 29.0 mg/kg/injection, schedule: Q04DX003 (ip), vehicle: Klucel (hydroxypropylcellulose) (HPC)); 115 % of control (dose: 45.0 mg/kg/injection, schedule: Q04DX003 (ip), vehicle: Klucel (hydroxypropylcellulose) (HPC)); 105 % of control under setting [9]. Also, the T/C (dose: 150.0 mg/kg/injection, schedule: Q04DX003 (ip), vehicle: Klucel (hydroxypropylcellulose) (HPC)) is 150 % of control and the T/C (dose: 200.0 mg/kg/injection, schedule: Q04DX003 (ip), vehicle: Klucel (hydroxypropylcellulose) (HPC)) was 118 % of control.

For the molecule `CCOC(=O)NC(CC)CO` (centres undefined), the T/C under setting [10] is 100 % of control; the T/C (dose: 200.0 mg/kg/injection, schedule: Q01DX009 (ip), vehicle: Klucel (hydroxypropylcellulose) (HPC)) was 95 % of control; the T/C (dose: 400.0 mg/kg/injection, schedule: Q01DX009 (ip), vehicle: Klucel (hydroxypropylcellulose) (HPC)) was 90 % of control.

Regarding `COc1cc2c(cc1OC)C(OC)N(C)c1c-2ccc2cc(OC)c(OC)cc12` (centres undefined), the T/C (dose: 100.0 mg/kg/injection, schedule: Q04DX003 (ip), vehicle: water) is 161 % of control; the T/C (dose: 200.0 mg/kg/injection, schedule: Q04DX003 (ip), vehicle: water) is 161 % of control; the T/C (dose: 300.0 mg/kg/injection, schedule: Q04DX003 (ip), vehicle: water) is 166 % of control; the T/C (dose: 400.0 mg/kg/injection, schedule: Q04DX003 (ip), vehicle: water) was 102 % of control.

Regarding `N#Cc1ccc(S(N)(=O)=O)cc1`, the T/C reads like this: (dose: 12.5 mg/kg/injection, schedule: Q04DX003 (ip), vehicle: Klucel (hydroxypropylcellulose) (HPC)) 109 % of control; under setting [8], 111 % of control; (dose: 25.0 mg/kg/injection, schedule: Q04DX003 (ip), vehicle: Klucel (hydroxypropylcellulose) (HPC)) 109 % of control; under setting [9], 111 % of control; under setting [4], 100 % of control; (dose: 50.0 mg/kg/injection, schedule: Q04DX003 (ip), vehicle: Klucel (hydroxypropylcellulose) (HPC)) 104 % of control. Besides, under setting [10], the T/C was 111 % of control.

For the molecule `S=P(S)(c1ccccc1)c1ccccc1`, the T/C reads like this: (dose: 80.5 mg/kg/injection, schedule: Q01DX009 (ip), vehicle: saline) 90 % of control; (dose: 106.26 mg/kg/injection, schedule: Q01DX009 (ip), vehicle: saline) 116 % of control; (dose: 241.5 mg/kg/injection, schedule: Q01DX009 (ip), vehicle: saline) 95 % of control.

Consider `COC(OC)c1nc(N)[nH]c(=O)c1Cc1ccc(Br)cc1`, for which the T/C under setting [5] was 95 % of control, the T/C under setting [6] is 104 % of control and the T/C under setting [7] was 100 % of control.

`O=C(CN1CCOCC1)N1CCOCC1`: the T/C runs as follows: under setting [1], 90 % of control; (dose: 100.0 mg/kg/injection, schedule: Q04DX003 (ip), vehicle: saline) 100 % of control; under setting [2], 100 % of control; (dose: 200.0 mg/kg/injection, schedule: Q04DX003 (ip), vehicle: saline) 95 % of control; under setting [3], 100 % of control; (dose: 400.0 mg/kg/injection, schedule: Q04DX003 (ip), vehicle: saline) 104 % of control.
